Read-outs that look alike come from different tables or passages of the source.
How the values were obtained:
human KCNQ2/KvLR1 = molecular target: T1, human KCNQ2/KvLR1 (Homo sapiens, UniProt O43526, DEL509-509/N780T); type: cell-based
T1 construct: The full-length human KCNQ2 and KCNQ3 cDNAs were subcloned into a Xenopus expression vector and cRNA was generated by in vitro transcription; expressed in transfected cells; host or cells: Xenopus laevis oocytes (cRNA injection)
Experimental: Superimposed currents were recorded during 1 second steps to +30 mV, from −80 mV, during the same experiment. Compounds were applied via bath perfusion in order from top to bottom. The bath was perfused with control solution for 5 minutes, or until effects reversed completely, between compounds.
Inhibitors of various potassium channels present in brain and other tissues were used to investigate the pharmacology of KCNQ2/KvLR1.
(§1) Stage V and VI Xenopus laevis oocytes were defolliculated with collagenase treatment and injected with cRNAs, as described in Yang et al., supra. Currents were recorded at room temperature using the two-microelectrode voltage clamp (Dagan TEV-200) technique between 3-5 days after injection of KCNQ2 (15 ng), KCNQ3 (15 ng), or KCNE1 (2 ng) cRNA alone or in combination. Microelectrodes (0.8 to 1.5 MΩ) were filled with 3 M KCl . Bath solution contained (in mM): 96 NaCl, 2 KCl , 0.4-1.8 CaCl2, 1-2 MgCl2 and 5 HEPES (pH 7.5). KCl was varied in some experiments by equimolar substitution with NaCl.
(§2) Axoclamp (Axon Instruments) was used for generating voltage clamp commands and acquiring data and Axograph 3.0 (Axon Instruments) was used for data analysis. All data was sampled at rates at least two times the low pass filter rate. Experiments were performed at 22-25° C.

KCNQ3 = molecular target: T2, KCNQ3 (Homo sapiens, UniProt O43525); type: cell-based
T2 construct: The full-length human KCNQ2 and KCNQ3 cDNAs were subcloned into a Xenopus expression vector and cRNA was generated by in vitro transcription; expressed in transfected cells; host or cells: Xenopus laevis oocytes (cRNA injection)
Experimental: FIGS. 18A-18D show the functional characterization of KCNQ3 currents. […] Currents were recorded using the protocol in FIG. 18A. […] Each value is the mean±SEM from 6 oocytes. […] Superimposed currents were recorded during 1 sec steps to +20 mV, from −80 mV, during the same experiment. Compounds were applied via bath perfusion in order from top to bottom. The bath was perfused with control solution for 5 min, or until effects reversed completely, between compounds.
as §1, §2

KCNQ2+KCNQ3 = molecular target: T3, KCNQ2+KCNQ3 (Homo sapiens, UniProt O43525+O43526, DEL509-509/N780T); type: cell-based
T3 construct: The full-length cDNAs were subcloned into a Xenopus expression vector, derived from pSP64T plasmid; expressed in transfected cells; host or cells: Xenopus laevis oocytes (co-injection of cRNAs)
Experimental: FIGS. 19A-19F show co-expression of KCNQ2 and KCNQ3. […] Currents were recorded using the protocol in FIGS. 19A-19C. […] The dashed line has a slope predicted by the Nernst equation for a perfectly selective K^+ channel. Each value is the mean±SEM from 6 oocytes. […] Superimposed currents were recorded during 1 sec steps to +20 mV, from […], during the same experiment. Compounds were applied via bath perfusion in order from top to bottom.
as §1, §2

KCNQ1/KvLQT1 [1] = molecular target: T4, KCNQ1/KvLQT1 (Homo sapiens, UniProt P51787); settings: from Yang et al. (1997); cited from earlier work
murine KCNQ2/KvLR1 = molecular target: T5, murine KCNQ2/KvLR1 (Mus musculus, UniProt Q9Z351, DEL481-481/H600Q/P326Q); experiment: murine KCNQ2/KvLR1-mediated whole-cell currents in Xenopus oocytes, 2-electrode voltage clamp; type: cell-based; settings: for effect on murine KCNQ2-mediated currents: concentration not given
T5 construct: Also disclosed is a full-length murine cDNA clone of KCNQ2 (murine KvLR1); expressed in transfected cells; host or cells: Xenopus oocytes (cRNA injection)
Experimental: FIGS. 15A and 15B show electrophysiology characterization of mouse KCNQ2/KvLR1-mediated whole-cell currents expressed in Xenopus oocytes.
To test for functional expression, cRNA was prepared from the murine KCNQ2/KvLR1 gene and injected into Xenopus oocytes. In a two-electrode voltage clamp, a family of outward currents were generated in murine KCNQ2/KvLR1 cRNA-injected oocytes (n>20). After a minimum of 48 hours, currents qualitatively and quantitatively different than native currents generated with identical protocols in water injected or uninjected control cells (representing Ca^2+-activated chloride currents and other native currents) (FIG. 15). […] Similar currents were obtained from CHO cells stably expressing murine KCNQ2 and recorded using patch-clamp techniques. Single channel conductances were estimated to be 24-30 pS in symmetrical 140 mM potassium. (FIG. 22).
The murine KCNQ2/KvLR1 cDNAs were linearized with the restriction enzyme NotI and in vitro transcribed using the mMessage mMachine T7 RNA polymerase kit according to the manufacturer's instructions (Ambion, Austin, Tex.). The cRNAs were solubilized in RNase-free water, and stored at −70° C. at a concentration of 1.0 μg/μl. Frog oocytes were prepared and injected using standard techniques (Colman, 1984). In murine KvLR1 expression experiments, each oocyte was injected with approximately 35-40 nl of the cRNA. Following injection, oocytes were maintained at 17° C., in ND96 medium consisting of (in mM): NaCl, 90; KCl, 1.0; CaCl2, 1.0; MgCl2, 1.0; HEPES, 5.0; pH 7.5. Horse serum and penicillin/streptomycin, both 5% of final volume, were added as supplements to the incubation medium. Electrophysiological recording commenced 2-6 days following cRNA injection. Prior to the start of an experiment oocytes were placed in a recording chamber and incubated in Modified Barth's Solution (MBS) consisting of (in mM): NaCl, 88; NaHCO3, 2.4; KCl, 1.0; HEPES, 10; MgSO4, 0.82; Ca(NO3)2, 0.33; CaCl2, 0.41; pH 7.5. Oocytes were impaled with electrodes (1-2 MΩ) and standard 2-electrode voltage clamp techniques were employed to record whole-cell membrane currents (Stuhmer, 1992; TEC 200, Dagan Instruments). Voltage-clamp protocols typically consisted of a series of voltage steps 100-500 ms duration, in +10 mV steps from a holding potential of −60 mV to −90 mV to a maximal potential of +40 mV to +50 mV; records were digitized at 5 kHz and stored on a computer using pClamp 6.0 software (Axon Instruments), and analyzed using ClampFit or AxoGraph software (Axon Instruments).

minK+human KCNQ2/KvLR1 = minK+human KCNQ2/KvLR1 (Homo sapiens, UniProt O43526); settings: 1 mM, steps to +40 mV from −80 mV
Experimental: as §1

KCNQ1/KvLQT1 [2] = molecular target: T4, KCNQ1/KvLQT1; experiment: KCNQ1/KvLQT1 currents (comparison); type: cell-based; settings: no citation, concentration not given
[3] = 10 μM, steps to +30 mV from −80 mV

minK+human KCNQ2/KvLR1, sequence (O43526 whole entry): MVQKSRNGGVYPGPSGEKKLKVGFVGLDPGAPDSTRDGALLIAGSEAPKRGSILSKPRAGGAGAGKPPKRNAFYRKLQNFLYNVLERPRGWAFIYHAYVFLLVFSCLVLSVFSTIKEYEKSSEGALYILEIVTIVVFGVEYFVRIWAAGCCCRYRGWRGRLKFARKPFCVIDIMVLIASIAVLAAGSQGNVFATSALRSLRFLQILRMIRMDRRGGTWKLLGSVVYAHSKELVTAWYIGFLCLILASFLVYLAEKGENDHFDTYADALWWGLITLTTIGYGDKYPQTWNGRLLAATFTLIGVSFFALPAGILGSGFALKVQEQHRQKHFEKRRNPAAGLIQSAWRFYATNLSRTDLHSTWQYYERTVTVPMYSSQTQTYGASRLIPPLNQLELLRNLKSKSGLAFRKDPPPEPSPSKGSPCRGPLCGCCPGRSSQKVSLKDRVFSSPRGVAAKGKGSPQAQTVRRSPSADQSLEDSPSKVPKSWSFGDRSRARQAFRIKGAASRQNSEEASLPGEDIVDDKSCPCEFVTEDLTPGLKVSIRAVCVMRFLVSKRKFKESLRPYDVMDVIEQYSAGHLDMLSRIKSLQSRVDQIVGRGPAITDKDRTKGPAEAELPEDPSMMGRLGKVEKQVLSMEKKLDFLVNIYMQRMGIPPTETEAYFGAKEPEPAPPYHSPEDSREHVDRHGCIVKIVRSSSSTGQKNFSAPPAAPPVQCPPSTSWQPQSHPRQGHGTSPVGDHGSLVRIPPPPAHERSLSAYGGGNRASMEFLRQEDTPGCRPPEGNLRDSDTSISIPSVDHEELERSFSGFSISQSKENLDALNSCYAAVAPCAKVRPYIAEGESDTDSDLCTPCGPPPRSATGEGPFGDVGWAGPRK

## Nc1ccncc1 [4-AP, 4-aminopyridine]
Human KCNQ2/KvLR1; 0.2 mM
  effect on KCNQ2/KvLR1 current: Neither E-4031 nor 4-AP produced significant effects
KCNQ3; 2 mM
  effect on KCNQ3 current: no effect
KCNQ2+KCNQ3; 2 mM
  sensitivity of KCNQ2+KCNQ3 current to inhibition: not
KCNQ1/KvLQT1 [1]
  inhibition of KCNQ1/KvLQT1 currents: do not inhibit

## Cc1cccc(CCN2CCC(C(=O)c3ccc(NS(C)(=O)=O)cc3)CC2)n1 [E-4031]
Human KCNQ2/KvLR1; [3]
  effect on KCNQ2/KvLR1 current: Neither E-4031 nor 4-AP produced significant effects
KCNQ3; 10 μM
  effect on KCNQ3 current: no effect
KCNQ2+KCNQ3; 10 μM
  sensitivity of KCNQ2+KCNQ3 current to inhibition: did not inhibit
KCNQ1/KvLQT1 [1]
  inhibition of KCNQ1/KvLQT1 currents: do not inhibit

## CC[N+](CC)(CC)CC [TEA, tetraethylammonium]
Human KCNQ2/KvLR1
  effect on KCNQ2 current: strongly inhibited
KCNQ3
  effect on KCNQ3 current: little inhibition
KCNQ2+KCNQ3
  sensitivity of KCNQ2+KCNQ3 current to inhibition: weakly sensitive to inhibition
Murine KCNQ2/KvLR1
  block of murine KCNQ2/KvLR1-mediated currents: blocked
minK+human KCNQ2/KvLR1
  effect on minK+human KCNQ2/KvLR1 currents: partially inhibited

## CCCCCCC[N+](CC)(CC)CCCCc1ccc(Cl)cc1 [clofilium]
Human KCNQ2/KvLR1; [3]
  effect on KCNQ2/KvLR1 current: little effect
KCNQ3; 10 μM
  reduction of KCNQ3 current from control: 30%
KCNQ2+KCNQ3; 10 μM
  sensitivity of KCNQ2+KCNQ3 current to inhibition: weakly sensitive to inhibition
Murine KCNQ2/KvLR1; 20 μM, depolarized from −80 to +40
  block of murine KCNQ2-mediated currents: partially block
KCNQ1/KvLQT1 [1]
  inhibition of KCNQ1/KvLQT1 currents: strong inhibitor

## Charybdotoxin
Human KCNQ2/KvLR1; 0.1 mM (concentration tested)
  effect on KCNQ2/KvLR1 current: did not inhibit
KCNQ3; 100 nM
  effect on KCNQ3 current: no effect
KCNQ2+KCNQ3; 100 nM
  sensitivity of KCNQ2+KCNQ3 current to inhibition: not
Murine KCNQ2/KvLR1
  effect on murine KCNQ2-mediated currents: no significant effect
KCNQ1/KvLQT1 [2]
  effect on KCNQ1/KvLQT1: no effect

## iberiotoxin: specific K+ channel blocking toxin (QFTDVDCSVSKECWSVCKDLFGVDRGKCMGKKCRCYQ)
Murine KCNQ2/KvLR1
  effect on murine KCNQ2-mediated currents: no significant effect

## α-dendrotoxin (QPRRKLCILHRNPGRCYDKIPAFYYNQKKKQCERFDWSGCGGNSNRFKTIEECRRTCIG)
Murine KCNQ2/KvLR1
  effect on murine KCNQ2-mediated currents: no significant effect

Source: patent US7262289B2, “KCNQ potassium channels and methods of modulating same” (Bristol-Myers Squibb Co., priority 1997, dated 2007)
